Measured values as given in patent US6156700A, “3-(1,2-Benzisothiazol- and isoxazol-5-yl)-2,4(1H,3H)-pyrimidinedione or thione and 3-(1,2-benzisothiazol- and isoxazol-5-yl)-4(3H)-pyrimidinone or thione herbicidal agents” (American Cyanmid Company, priority 1998, dated 2000).

Assays:
[1] = tested on: Morningglory, Ivyleaf, Ipomoea hederacea; assay: Preemergence herbicidal evaluation, IPOHE; assay type: in vivo, (L.) Jacq.; conditions: 0.2500 kg/ha
Excerpt: (§1) Results of herbicide evaluation are expressed on a rating scale (0-9). The scale is based upon a visual observation of plant stand, vigor, malformation, size, chlorosis and overall plant appearance as compared with a control.
(§2) The preemergence herbicidal activity of the test compounds of the present invention is exemplified by the following tests in which the seeds of a variety of monocotyledonous and dicotyledonous plants are separately mixed with potting soil and planted on top of approximately one inch of soil in separate pint cups. After planting, the cups are sprayed with the selected aqueous acetone solution containing test compound in sufficient quantity to provide the equivalent of about 0.0156 to 0.500 kg per hectare of test compound per cup. The treated cups are then placed on greenhouse benches, watered and cared for in accordance with conventional greenhouse procedures. From four to five weeks after treatment, the tests are terminated and each cup is examined and rated according to the rating system provided in Example 185.
(§3) The compounds evaluated are reported by compound number given in Example 185.

[2] = tested on: Galium, Galium aparine; assay: Preemergence herbicidal evaluation, GALAP; assay type: in vivo; conditions: 0.2500 kg/ha
Excerpt: as §1, §2, §3

[3] = tested on: Sicklepod, Cassia obtusifolia; assay: Preemergence herbicidal evaluation, CASOB; assay type: in vivo, L.; conditions: 0.2500 kg/ha
Excerpt: as §1, §2, §3

[4] = tested on: Ragweed, Common, Ambrosia artemisifolia; assay: Preemergence herbicidal evaluation, AMBEL; assay type: in vivo, L.; conditions: 0.2500 kg/ha
Excerpt: as §1, §2, §3

[5] = tested on: Rice, Tebonnet, Oryza sativa; assay: Postemergence herbicidal evaluation, ORYSAT; assay type: in vivo, (L.) Tebonnet; conditions: 0.0630 kg/ha
Method in brief: (§4)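 Each compound, dispersed in a 1:1 acetone–water mixture bearing 0.5% TWEEN 20, was sprayed onto roughly two-week-old seedlings at about 0.0157–0.500 kg/ha. Visual 0–9 ratings against control were made 4–5 weeks post-treatment and averaged over repeat tests.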

[6] = tested on: Wheat, Winter, cv Riband, Triticum aestivum; assay: Preemergence herbicidal evaluation, TRZAWR; assay type: in vivo; conditions: 0.2500 kg/ha
Excerpt: as §1, §2, §3

[7] = tested on: Lambsquarters, Common, Chenopodium album; assay: Postemergence herbicidal evaluation, CHEAL; assay type: in vivo, L.; conditions: 0.0630 kg/ha
Method in brief: as §4

[8] = tested on: Velvetleaf, Abutilon theophrasti; assay: Postemergence herbicidal evaluation, ABUTH; assay type: in vivo, Medic.; conditions: 0.0630 kg/ha
Method in brief: as §4

[9] = tested on: Barnyardgrass, Echinochloa crus-galli; assay: Postemergence herbicidal evaluation, ECHCG; assay type: in vivo, (L.) Beau; conditions: 0.0630 kg/ha
Method in brief: as §4

[10] = tested on: Soybean, Williams, Glycine max; assay: Postemergence herbicidal evaluation, GLXMAW; assay type: in vivo, (L.) Merr. cv Williams; conditions: 0.0630 kg/ha
Method in brief: as §4

[11] = tested on: Foxtail, Green, Setaria viridis; assay: Postemergence herbicidal evaluation, SETVI; assay type: in vivo, (L.) Beau; conditions: 0.0630 kg/ha
Method in brief: as §4

[12] = tested on: Wheat, Winter, cv Riband, Triticum aestivum; assay: Postemergence herbicidal evaluation, TRZAWR; assay type: in vivo; conditions: 0.0630 kg/ha
Method in brief: as §4

[13] = tested on: Galium, Galium aparine; assay: Postemergence herbicidal evaluation, GALAP; assay type: in vivo; conditions: 0.0630 kg/ha
Method in brief: as §4

[14] = tested on: Rice, Tebonnet, Oryza sativa; assay: Preemergence herbicidal evaluation, ORYSAT; assay type: in vivo, (L.) Tebonnet; conditions: 0.2500 kg/ha
Excerpt: as §1, §2, §3

[15] = tested on: Velvetleaf, Abutilon theophrasti; assay: Preemergence herbicidal evaluation, ABUTH; assay type: in vivo, Medic.; conditions: 0.2500 kg/ha
Excerpt: as §1, §2, §3

[16] = tested on: Morningglory, Ivyleaf, Ipomoea hederacea; assay: Postemergence herbicidal evaluation, IPOHE; assay type: in vivo, (L.) Jacq.; conditions: 0.0630 kg/ha
Method in brief: as §4

[17] = tested on: Foxtail, Green, Setaria viridis; assay: Preemergence herbicidal evaluation, SETVI; assay type: in vivo, (L.) Beau; conditions: 0.2500 kg/ha
Excerpt: as §1, §2, §3

[18] = tested on: Corn, Field, Zea mays; assay: Preemergence herbicidal evaluation, ZEAMX; assay type: in vivo, L.; conditions: 0.2500 kg/ha
Excerpt: as §1, §2, §3

[19] = tested on: Ragweed, Common, Ambrosia artemisifolia; assay: Postemergence herbicidal evaluation, AMBEL; assay type: in vivo, L.; conditions: 0.0630 kg/ha
Method in brief: as §4

[20] = tested on: Soybean, Williams, Glycine max; assay: Preemergence herbicidal evaluation, GLXMAW; assay type: in vivo, (L.) Merr. cv Williams; conditions: 0.2500 kg/ha
Excerpt: as §1, §2, §3

[21] = tested on: Corn, Field, Zea mays; assay: Postemergence herbicidal evaluation, ZEAMX; assay type: in vivo, L.; conditions: 0.0630 kg/ha
Method in brief: as §4

[22] = tested on: Barnyardgrass, Echinochloa crus-galli; assay: Preemergence herbicidal evaluation, ECHCG; assay type: in vivo, (L.) Beau; conditions: 0.2500 kg/ha
Excerpt: as §1, §2, §3

[23] = tested on: Lambsquarters, Common, Chenopodium album; assay: Preemergence herbicidal evaluation, CHEAL; assay type: in vivo, L.; conditions: 0.2500 kg/ha
Excerpt: as §1, §2, §3

[24] = tested on: Sicklepod, Cassia obtusifolia; assay: Postemergence herbicidal evaluation, CASOB; assay type: in vivo, L.; conditions: 0.0630 kg/ha
Method in brief: as §4

Row | SMILES | herbicide rating (0-9) [1] | herbicide rating (0-9) [2] | herbicide rating (0-9) [3] | herbicide rating (0-9) [4] | herbicide rating (0-9) [5] | herbicide rating (0-9) [6] | herbicide rating (0-9) [7] | herbicide rating (0-9) [8] | herbicide rating (0-9) [9] | herbicide rating (0-9) [10] | herbicide rating (0-9) [11] | herbicide rating (0-9) [12] | herbicide rating (0-9) [13] | herbicide rating (0-9) [14] | herbicide rating (0-9) [15] | herbicide rating (0-9) [17] | herbicide rating (0-9) [18] | herbicide rating (0-9) [20] | herbicide rating (0-9) [22] | herbicide rating (0-9) [23] | other results
1 | COc1c(C)cc(C)cc1-c1nsc2ccc(-n3c(=O)cc(C(F)(F)F)n(C)c3=O)cc12 [Compound 18, 3-[3-(2-Methoxy-3,5-xylyl)-1,2-benzisothiazol-5-yl]-1-methyl-6-(trifluoromethyl)-2,4(1H,3H)-pyrimidinedione] | 4.0 | 1.0 | 4.0 | 9.0 | 2.0 | 0.0 | 9.0 | 9.0 | 4.0 | 4.0 | 5.0 | 2.5 | 5.0 | 0.0 | 9.0 | 9.0 | 3.0 | 2.0 | 5.0 | 9.0 | herbicide rating (0-9) [16]: 9.0; herbicide rating (0-9) [19]: 6.0; herbicide rating (0-9) [21]: 5.0
2 | COC(=O)COc1noc2ccc(-n3c(=O)cc(C(F)(F)F)n(C)c3=O)cc12 [Compound 22, Methyl {{5-[3,6-dihydro-3-methyl-2,6-dioxo-4-(trifluoromethyl)-1(2H)-pyrimidinyl]-1,2-benzisoxazol-3-yl}oxy}acetate] | 0.0 | 4.0 | 9.0 | 0.0 |  | 0.0 |  |  |  |  |  |  |  | 0.0 | 0.0 | 0.0 | 1.0 | 2.0 | 0.0 | 0.0 | 
3 | Cc1noc2cc(F)c(-n3c(=O)cc(C(F)(F)F)n(C)c3=O)cc12 [Compound 23, 3-(6-Fluoro-3-methyl-1,2-benzisoxazol-5-yl)-1-methyl-6-(trifluoromethyl)-2,4(1H,3H)-pyrimidinedione] | 9.0 | 9.0 | 9.0 | 9.0 |  | 9.0 |  |  |  |  |  |  |  | 9.0 | 9.0 | 9.0 | 9.0 | 9.0 | 9.0 | 9.0 | 
4 | COc1ccc(C)cc1-c1nsc2ccc(-n3c(=O)cc(C)n(C)c3=O)cc12 [Compound 24, 3-[3-(6-Methoxy-m-tolyl)-1,2-benzisothiazol-5-yl]-1,6-dimethyl-2,4(1H,3H)-pyrimidinedione] | 9.0 | 3.0 | 4.0 | 5.0 | 0.5 | 0.0 | 0.0 | 7.0 | 0.0 | 3.0 | 0.0 | 3.0 | 0.0 | 0.0 | 9.0 | 5.0 | 2.0 | 1.0 | 3.0 | 9.0 | herbicide rating (0-9) [16]: 4.0; herbicide rating (0-9) [19]: 3.0; herbicide rating (0-9) [21]: 5.0
5 | Cn1c(C(F)(F)F)cc(=O)n(-c2ccc3onc(-c4ccccc4)c3c2)c1=O [Compound 25, 1-Methyl-3-(3-phenyl-1,2-benzisoxazol-5-yl)-6-(trifluoromethyl)-2,4 (1H,3H)-pyrimidinedione] | 9.0 | 8.0 | 9.0 | 9.0 | 3.5 | 7.0 | 9.0 | 9.0 | 2.0 | 7.0 | 7.0 | 3.5 | 5.0 | 7.0 | 9.0 | 9.0 | 7.0 | 9.0 | 9.0 | 9.0 | herbicide rating (0-9) [16]: 8.0; herbicide rating (0-9) [19]: 5.0; herbicide rating (0-9) [21]: 4.5
6 | COC(=O)COc1c(C)cc(C)cc1-c1nsc2ccc(-n3c(=O)cc(C(F)(F)F)n(C)c3=O)cc12 [Compound 26, Methyl {{6-{5-[3,6-dihydro-3-methyl-2,6-dioxo-4-(trifluoromethyl)-1(2H)-pyrimidinyl]-1,2-benzisothiazol-3-yl}-2,4-xylyl}oxy}acetate] | 7.0 | 4.0 | 9.0 | 9.0 | 2.0 | 5.0 | 9.0 | 9.0 | 9.0 | 7.5 | 9.0 | 8.0 | 9.0 | 5.0 | 9.0 | 9.0 | 7.0 | 6.0 | 7.0 | 9.0 | herbicide rating (0-9) [24]: 6.0; herbicide rating (0-9) [16]: 9.0; herbicide rating (0-9) [19]: 9.0; herbicide rating (0-9) [21]: 7.0
7 | COC(=O)C(C)Oc1c(C)cc(C)cc1-c1nsc2ccc(-n3c(=O)cc(C(F)(F)F)n(C)c3=O)cc12 (stereo not drawn) [Compound 27, Methyl 2-{{6-{5-[3,6-dihydro-3-methyl-2,6-dioxo-4-(trifluoromethyl)-1(2H)-pyrimidinyl]-1,2-benzisothiazol-3-yl}-2,4-xylyl}oxy}propionate] | 6.0 | 2.0 | 9.0 | 9.0 | 4.5 | 5.0 | 9.0 | 9.0 | 7.0 | 7.0 | 7.0 | 8.5 | 9.0 | 2.0 | 9.0 | 9.0 | 4.0 | 9.0 | 7.0 | 9.0 | herbicide rating (0-9) [24]: 4.0; herbicide rating (0-9) [16]: 9.0; herbicide rating (0-9) [19]: 9.0; herbicide rating (0-9) [21]: 7.0
